Results published in patent US8252973B2, “Metabolic engineering of lipid metabolism by improving fatty acid binding and transport” (The Salk Institute for Biological Studies, priority 2006, dated 2012).

Legend:
Format in all cases: binding
At279 (At3g63170) [1] = biological target: T1, At279 (At3g63170) (Arabidopsis thaliana, UniProt Q9M1X2); test: LC-MS analysis of fatty acids bound to purified At279 protein; conditions: protein over-expressed in and purified from E. coli, ethanol extract, negative-ion ESI
T1 construct: At279 and At287 proteins were purified to homogeneity as described above; His tag (pHIS8 vector) (N, cleaved yes); made in house; host or cells: E. coli BL21 (DE3)
T1 sequence (Q9M1X2 1-279): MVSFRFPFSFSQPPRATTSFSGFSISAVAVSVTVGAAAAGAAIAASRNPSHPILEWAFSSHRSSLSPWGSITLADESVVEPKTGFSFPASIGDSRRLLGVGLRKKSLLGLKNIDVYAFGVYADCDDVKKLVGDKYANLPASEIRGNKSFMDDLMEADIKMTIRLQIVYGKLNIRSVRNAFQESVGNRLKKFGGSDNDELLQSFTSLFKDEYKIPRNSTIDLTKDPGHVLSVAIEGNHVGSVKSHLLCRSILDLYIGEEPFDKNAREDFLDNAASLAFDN
Procedure: (§1) Cloning, expression and purification of At3g63170 (At279) and At1g53520 (At287): Arabidopsis thaliana At3g63170 (At279) and At1g53520 (At287) genes were subcloned into the pHIS8 Escherichia coli expression vector derived from pET28a (+). For crystallization purpose, constructs of At279 and At287 lacking the transit peptide sequence found at the N-terminal region of the protein (˜50 amino acids) were also created. Transformed E. coli. BL21 (DE3) cells were incubated with shaking at 37° C. in Terrific broth containing 50 μg/ml kanamycin until A([…])=1.0. Protein expression was induced with 0.5 mM isopropyl 1-thio-β-galactopyranoside, and the cultures were incubated with shaking at 22° C. for an additional 6 h. Cells were harvested by centrifugation at 9,000×g and cell pellets re-suspended in lysis buffer (500 mM NaCl, 50 mM Tris-HCl (pH 8.0), 20 mM imidazole, 10% (v/v) glycerol 1% (v/v) Tween 20, 10 mM […]) supplemented with 1 mg/ml lysozyme. Following sonication and centrifugation of the lysed cell debris at 100,000×g, the supernatant was passed over a Ni2+-NTA column (Qiagen, Valencia, Calif.) equilibrated in lysis buffer, washed with 10 bed volumes of wash buffer (500 mM NaCl, 50 mM Tris-HCl (pH 8.0), 20 mM imidazole, 10 mM β-mercaptoethanol), and the His-tagged protein eluted with 10 bed volumes of elution buffer (500 mM NaCl, 50 mM Tris-HCl (pH 8.0), 250 mM imidazole, 10 mM β-mercaptoethanol). The N-terminal His tag was cleaved by thrombin digestion during a 24-h dialysis against digestion buffer (500 mM NaCl, 50 mM Tris (pH 8.0), 10 mM β-mercaptoethanol) at 4° C. Cleaved protein was isolated by running the dialyzed sample over another Ni2+-NTA column equilibrated in digestion buffer to remove the His tag and uncleaved protein, followed by a benzamidine-Sepharose column to remove thrombin. A Superdex S75 gel filtration column (Amersham Biosciences) equilibrated in gel filtration buffer (500 mM NaCl, 25 mM HEPES (pH 7.5), 2 mM dithiothreitol (DTT) was utilized to isolate homogeneous At279 and A287. Peak fractions were collected and dialyzed against crystallization storage buffer (100 mM NaCl, 25 mM HEPES (pH 7.5), 2 mM DTT). The resulting samples were subjected to SDS-PAGE and judged to be >95% pure based upon Coomassie staining. At279 and At287 were subsequently concentrated to 10-15 mg/ml and stored at −80° C.
(§2) At279 and At287 proteins were purified to homogeneity as described above. Ice-cold HPLC grade ethanol (600 μl) was added to the proteins (150 μl protein sample at 10 mg/ml previously dialyzed against 20 mM ammonium bicarbonate). The samples were vortexed and incubated at −20° C. for 3 days. For LC-MS analysis, the samples were centrifuged, and the supernatant containing the FAs was removed and placed in a new glass vial. The solvent was evaporated at 25° C., and the remaining residue resuspended in 200 μl propanol. The extracts were analyzed by liquid chromatography (LC) using an Agilent 1100 HPLC employing a Gemini reversed-phase C18 column (4.6×150 mm, 5 μ) running at a flow rate of 1 ml/min, and coupled to an electrospray ionization (ESI) XCT ion trap mass spectrometer (Agilent) operated in the negative-ion mode employing a continual introduction of a 20 mM ammonium acetate solution flowing at 100 μl/min. A linear gradient of acetonitrile (30-100% v/v) in 25 mM ammonium bicarbonate, pH 8, was used. The negative ion-ESI mass spectra of FA standards were as follows: Laurie acid (C12:0) (m/z)=198.7 ([M-H]-), Myristic acid (C14:0) (m/z)=226.9 ([M-H]-), Palmitic acid (C16:0)/m/z)=254.9 ([M-H]-) and Stearic acid (C18:0) (m/z)=282.9 ([M-H]-).

At287 (At1g53520) = biological target: T2, At287 (At1g53520) (Arabidopsis thaliana, UniProt Q9C8L2); test: LC-MS analysis of fatty acids bound to purified At287 protein; conditions: protein over-expressed in and purified from E. coli, ethanol extract, negative-ion ESI
T2 construct: At279 and At287 proteins were purified to homogeneity as described above; His tag (pHIS8 vector) (N, cleaved yes); made in house; host or cells: E. coli BL21 (DE3)
T2 sequence (Q9C8L2 73-287): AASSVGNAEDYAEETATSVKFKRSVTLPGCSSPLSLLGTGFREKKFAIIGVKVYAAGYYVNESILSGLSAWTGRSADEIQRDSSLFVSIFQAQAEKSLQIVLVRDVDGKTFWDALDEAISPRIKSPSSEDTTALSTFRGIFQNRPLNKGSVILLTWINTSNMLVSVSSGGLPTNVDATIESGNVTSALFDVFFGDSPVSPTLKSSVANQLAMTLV
Procedure: as §1, §2

At279 (At3g63170) [2] = biological target: T3, At279 (At3g63170) (Arabidopsis thaliana, UniProt Q9M1X2); test: X-ray crystal structure of At279 with bound small molecule; conditions: ligand likely derived from E. coli, carboxylic acid sequestered by Arg 103 and Tyr 116
T3 construct: Crystals of the heterologously expressed At279 C-terminal construct (residues 77 to 279) were obtained by vapor diffusion; His tag (pHIS8 vector) (N, cleaved yes); made in house; host or cells: E. coli BL21 (DE3)
T3 sequence (Q9M1X2 77-279): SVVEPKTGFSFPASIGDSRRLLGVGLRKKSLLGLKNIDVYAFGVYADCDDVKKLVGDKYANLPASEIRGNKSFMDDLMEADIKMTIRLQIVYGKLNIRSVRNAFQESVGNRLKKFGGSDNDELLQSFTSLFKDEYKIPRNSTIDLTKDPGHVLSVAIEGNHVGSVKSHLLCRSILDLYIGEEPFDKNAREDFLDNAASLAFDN
Procedure: Crystals of the heterologously expressed At279 C-terminal construct (residues 77 to 279) were obtained by vapor diffusion in 2 μl hanging drops incubated at 4° C. and consisting of a 1:1 mixture of protein and crystallization buffer. The crystallization buffer contained 19% (w/v) PEG 3350, 0.3 M KCl, 2 mM DTT and 100 mM TAPS buffer at pH 8.5. Prior to freezing in liquid nitrogen, native crystals were passed through a cryogenic buffer identical to the crystallization buffer except for the use of 21% (w/v) PEG 3350 and the inclusion of 20% (v/v) ethylene glycol. For heavy atom derivatization, native At279 crystals were soaked overnight in crystallization buffer differing from the crystallization solution due to an increased PEG 3350 concentration (21% (w/v)) and the inclusion of 1 mM K2PtCl4 prior to cryogenic freezing as before. A multi-wavelength anomalous dispersion (MAD) data set was collected at the Pt edge on a K2PtCl4 derivative crystal at the Stanford Synchrotron Radiation Laboratory (SSRL) on beam line BL1-5. Data were processed with HKL2000 and reduced to a unique set of indexed intensities to a resolution of 2.6 Å. A single-wavelength native data set was collected at SSRL and processed with HXL2000 to a resolution of 1.9 Å. At279 crystals belong to the P2(1)2(1)2(1) space group, with average unit cell dimensions of a=56.44 Å, b=56.96 Å, c=140.37 Å, α=β=γ=90°. […]

| fatty acid bound to purified At279 (presence in protein extract by LC-MS) (At279 (At3g63170) [1]) | fatty acid bound to purified At279 (presence in protein extract by LC-MS) (At279 (At3g63170) [1]; listed as C16:0) | fatty acid bound to purified At287 (presence in protein extract by LC-MS) (At287 (At1g53520)) | fatty acid bound to purified At287 (presence in protein extract by LC-MS) (At287 (At1g53520); listed as C16:0) | fatty acid bound to purified At279 (presence in protein extract by LC-MS) (At279 (At3g63170) [1]; listed as C12:0) | fatty acid bound to purified At287 (presence in protein extract by LC-MS) (At287 (At1g53520); listed as C12:0) | fatty acid bound to purified At279 (presence in protein extract by LC-MS) (At279 (At3g63170) [1]; listed as C18:0) | fatty acid bound to purified At287 (presence in protein extract by LC-MS) (At287 (At1g53520); listed as C18:0) | fatty acid bound to purified At279 (presence in protein extract by LC-MS) (At279 (At3g63170) [1]; listed as C14:0) | fatty acid bound to purified At287 (presence in protein extract by LC-MS) (At287 (At1g53520); listed as C14:0) | SMILES | small molecule bound in At279 crystal structure (At279 (At3g63170) [2]) | small molecule bound in At279 crystal structure (At279 (At3g63170) [2]; listed as lauric acid) |
| --- | --- | --- | --- | --- | --- | --- | --- | --- | --- | --- | --- | --- |
| bind | clearly showed the presence | bind | clearly showed the presence |  |  |  |  |  |  | CCCCCCCCCCCCCCCC(=O)O [Palmitic acid] |  |  |
| bind |  | bind |  | clearly showed the presence | clearly showed the presence |  |  |  |  | CCCCCCCCCCCC(=O)O [Laurie acid, lauric acid] | sequestered in a well-organized binding pocket | bound in a cavity partially overlapping with the originally identified CHI active site |
| bind |  | bind |  |  |  | clearly showed the presence | clearly showed the presence |  |  | CCCCCCCCCCCCCCCCCC(=O)O [Stearic acid] |  |  |
| bind |  | bind |  |  |  |  |  | clearly showed the presence | clearly showed the presence | CCCCCCCCCCCCCC(=O)O [Myristic acid] |  |  |
